Measurements as given in patent US8026342B2, “Compositions and methods for binding sphingosine-1-phosphate” (Lpath, Inc., priority 2006, dated 2011).

Assays:
HT29 tumor = test: SC HT29 colorectal tumor xenograft; type: in vivo, athymic NCr-nu/nu mice; settings: LT1009 50 mg/kg ip q2d; Avastin 20 mg/kg iv q4d; 5-FU 75 mg/kg ip q4d
Description: Nude mice were implanted sc near the right flank with one fragment per mouse of HT29 tumor from an in vivo passage. All treatments were initiated the day when 60 mice in each experiment established tumors ranging in size from approximately 100 to 200 mm^3. There were ten mice per treatment group. […] 75 mg/kg 5-FU and 20 mg/kg Avastin were administered ip and iv at a dosage of 75 mg/kg/dose and 20 mg/kg/dose, respectively, q4d, injected in a volume of 0.1 mL/10 g body weight.
Animals were observed daily for mortality. Tumor dimensions and body weights were collected twice weekly starting with the first day of treatment and including the day of study termination. When the median tumor in the vehicle-treated control group in each study reached approximately 4,000 mg, the study was terminated. Tumors from each animal were harvested, wet weights were recorded, and tumors were processed for determination of MVD by CD-31 staining. Tumor weights (mg) were calculated using the equation for an ellipsoid sphere (l×w^2)/2=mm^3, where l and w refer to the larger and smaller dimensions collected at each measurement and assuming unit density (1 mm^3=1 mg).

[1] = Circular dichroism thermal denaturation of LT1009; type: physicochemical
Description: Circular dichroism spectroscopy was performed separately from the formulation studies. An Aviv 202 CD spectrophotometer was used to perform these analyses. Near UV CD spectra were collected from 400 nm to 250 nm. In this region, the disulfides and aromatic side chains contribute to the CD signals. In the far UV wavelength region (250-190 nm), the spectra are dominated by the peptide backbone. Thermal denaturation curves were generated by monitoring at 205 nm, a wavelength commonly used for b-sheet proteins. Data was collected using 0.1 mg/ml samples with heating from 25° C. to 85° C. Data were collected in 1° C. increments. The total time for such a denaturation scan was between 70 and 90 minutes. The averaging time was 2 seconds.

DU145 tumor = test: SC DU145 prostate tumor xenograft; type: in vivo, nude NCr (nu/nu) mice; settings: LT1009 50 mg/kg ip q2d; Avastin 20 mg/kg q4d; Paclitaxel 7.5 mg/kg q1d×5
Description: Nude mice were implanted sc near the right flank with one fragment per mouse of DU145 tumor from an in vivo passage. All treatments were initiated the day when 60 mice in each experiment established tumors ranging in size from approximately 100 to 200 mm^3. […] Paclitaxel and Avastin were administered iv and ip at a dosage of 7.5 mg/kg/dose and 20 mg/kg/dose, q1d×5 and q4d, respectively, injected in a volume of 0.1 mL/10 g body weight.
During the course of the study tumor growth was monitored by measuring the sc tumors on three axes and calculating the volume. At the end of the study final tumor weights and volumes were determined and then the mice were sacrificed, the tumors harvested. Microvascular densities (MVD) of the tumors were then determined by CD-31 staining.

[2] = test system: VEGF-induced angiogenesis; test: VEGF-induced angiogenesis in GFR Matrigel plug assay; type: in vivo, nu/nu mice; settings: 10 mg/kg i.p. every 72 hrs, 12 days
Description: Neovascularization in vivo was performed using the GFR Matrigel plug assay as described in Staton, et al., Int J Exp Pathol, 2004. 85(5): p. 233-48. 4-6 week old nu/nu mice were injected in the left flank with 500 uL of ice-cold GFR Matrigel. The GFR Matrigel was injected either alone (control) or after addition of 10 ug/mL VEGF supplemented with 100 ug/ml heparin. Groups consisted of 3 animals for control and sonepcizumab treatment. Animals were treated with the saline or sonepcizumab (10 mg/kg) 1 day prior to the implantation of GFR Matrigel and doses were administrated i.p. every 72 hrs for the duration of the experiment. After 12 days animals were sacrificed; the plugs were excised and immediately fixed in zinc and formalin-free fixative overnight, embedded in paraffin and sectioned (5 um). Paraffin-embedded sections were then stained for CD31 (Pharmingen). Images (9 images per section, 3 sections per plug) were taken by digital camera at 20× magnification and the CD31 positive staining was then quantified by PhotoShop 6.0 program and expressed as angiogenesis score (pixel^2) by ImageJ.

retinal macrophages = test: Oxygen induced retinopathy (ROP) model: retinal macrophage infiltration; type: in vivo, C57BL/6 mice; settings: 5 μg intraocular at day 12, read at day 17
Description: At day 17 of life, the mice received an intraocular injection of FITC-labeled antibody to F4/80 (a pan-macrophage marker) and after 8 hours, mice were euthanized. The globes were removed and fixed in PBS-buffered formalin at room temperature for 5 hours. Retinas were dissected and washed with phosphate-buffered saline containing 0.25% Triton X-100 and whole mounted. Slides were viewed with a Nikon Fluorescence Microscope and retinal macrophages were quantified.

[3] = BIAcore binding of murine anti-S1P mAb to S1P immobilized on chip; settings: read-out: affinity (Kd) for S1P
Description: Binding kinetics: The binding kinetics of S1P to its receptor or other moieties has, traditionally, been problematic because of the nature of lipids. Many problems have been associated with the insolubility of lipids. For BIAcore measurements, these problems were overcome by directly immobilizing S1P to a BIAcore chip. Antibody was then flowed over the surface of the chip and alterations in […] were measured to determine the binding characteristics of the antibody to S1P. To circumvent the bivalent binding nature of antibodies, S1P was coated on the chip at low densities. Additionally, the chip was coated with various densities of S1P (7, 20, and 1000 RU) and antibody binding data was globally fit to a 1:1 interaction model.

[4] = test system: fibroblasts (Swiss 3T3, murine cardiac, WI-38); test: S1P-stimulated fibroblast proliferation, migration, collagen expression and myofibroblast differentiation; type: cell-based; settings: 1 μg/mL antibody
Description: See Example 7, below, for experimental details. […] In these experiments, fibroblasts were serum-starved and then treated with 0, 0.1, 0.5, or 1 μM S1P+/−1 μg/mL SPHINGOMAB for 12-24 hr. […] SPHINGOMAB neutralized each of these S1P effects. SPHINGOMAB reduced perivascular fibrosis in vivo in a murine model of a permanent myocardial infarction (E).
S1P makes profound contributions to wound healing by activating fibroblast migration, proliferation and collagen production; SPHINGOMAB neutralizes these effects. Several studies using multiple types of fibroblasts confirm S1P's ability to promote wound healing: 1) S1P increased Swiss-3T3 fibroblast proliferation as measured by ^3H-thymidine incorporation using standard methods (FIG. 7A); 2) S1P promoted the migration of cardiac fibroblasts in a standard scratch wound healing assay. […] In each of these assays, SPHINGOMAB neutralized S1P's. It is anticipated that ocular fibroblasts would respond similarly to S1P and SPHINGOMAB.

[5] = test system: ovarian cancer (OVCAR3) cells; test: S1P-induced IL-8 release from ovarian cancer cells; type: cell-based, human; settings: 1 uM S1P
Description: After 22 hours of incubation, cell supernatants were collected and IL-8 secretion was measured by ELISA using an R&D Systems Quantikine human CXCL8/IL-8 kit.
In parallel, all the variants were tested for their effects on S1P-induced cytokine release from cancer cells.

## LT1009: humanized anti-S1P IgG1/kappa mAb with Cys to Ala in HCDR2, light chain with 5 backmutations; SEQ ID NO: 31/32
HT29 tumor
  % Reduction compared to Vehicle-Treated Mice: 13%
  Final Tumor Weights: 2390.63 mg
[1]; pH 6.0
  apparent Tm: about 77 °C
[1]; pH 7.2
  apparent Tm: approximately 73 °C
DU145 tumor
  % Reduction compared to Vehicle-Treated Mice: 28%
  Final Tumor Weights: 2242 mg
[2]
  prevention of VEGF-stimulated increase in cellularity and microvessel density: ~80%
Retinal macrophages
  # of macrophages per retina: 1136 ± 33
  % reduction in macrophage density: 55%
Retinal macrophages; listed as S1P antibody
  % reduction in macrophage density: 55.4 ± 1.3%

B1: LT1002: murine anti-S1P monoclonal antibody, IgG1 kappa, from hybridoma clone 306D326.26 (antibody, listed as Mus sp., V domains shown)
VH: QAHLQQSDAELVKPGASVKISCKVSGFIFIDHTIHWMKQRPEQGLEWIGCISPRHDITKYNEMFRGKATLTADKSSTTAYIQVNSLTFEDSAVYFCARGGFYGSTIWFDFWGQGTTLTVS
VL: ETTVTQSPASLSMAIGEKVTIRCITTTDIDDDMNWFQQKPGEPPNLLISEGNILRPGVPSRFSSSGYGTDFLFTIENMLSEDVADYYCLQSDNLPFTFGSGTKLEIK
[3]
  Kd: < 0.1 nM
[4]
  effect on S1P-stimulated fibroblast proliferation, migration, collagen expression, myofibroblast differentiation: neutralized
[5]
  reduction of S1P-induced IL-8 release: reduced IL-8 release
